# Results taken from patent US20250052678A1, “EVALUATION METHOD, EVALUATION DEVICE, AND INFORMATION PROCESSING PROGRAM” (HAMAMATSU PHOTONICS K.K., priority 2021, published 2025).
# Experiments:
# [1] = system: HepG2 cell aggregate (fatty liver model); assay: Lipid droplet volume ratio by distance from center of gravity in HepG2 cell aggregates, measuring method C (Example 2); format: cell-based, Human
# Experimental: Preparation of cell aggregates, homogenization, and induction of lipid droplet formation were carried out in the same manner as in Example 1. The refractive index distribution data was evaluated in accordance with Embodiment T3 (FIG. 42). The refractive index distribution data was obtained by the refractive index distribution measuring method C. In the obtained refractive index distribution data, the center of gravity C was calculated, and the refractive index distribution data was evaluated based on distances from the center of gravity C. It was divided into concentric circles at intervals of 2.5 μm from the center of gravity C, and the ratio of the volume of lipid droplets present therein was calculated. The lipid droplet region was set as a region having a refractive index n>1.37, cell region of spheroid as a region having a refractive index n>1.34 and a medium region as a region having a refractive index n≤1.34 and the calculation was carried out. The results of the cell aggregate of the oleic acid-treated HepG2 (fatty liver model) and the control (without oleic acid) were compared.
# [2] = system: Human liver cancer-derived cells (HepG2) cell aggregates; assay: Lipid droplet formation in HepG2 cell aggregates, refractive index distribution measuring method A2 (Example 1); format: cell-based; conditions: sodium oleate 0.5 mM, one day
# Experimental: Human liver cancer-derived cells (HepG2) were cultured for one day in a cell culture vessel (“EZSPHERE” manufactured by AGC-Techno Glass Co., Ltd.) having low-cell-adhesive compartments to prepare cell aggregates. The low-cell-adhesive compartments are provided with a low-protein-adhesive coat. Cell aggregates were formed in a DMEM medium containing 10% fetal bovine serum in the low-cell-adhesive compartments. A portion of the cell aggregates was cultured for one day in a DMEM medium containing 1% fatty acid-free bovine serum albumin instead of fetal bovine serum, with addition of sodium oleate to a final concentration of 0.5 mM, to induce formation of lipid droplets. The remaining portion of the cell aggregates was cultured for an additional day in a DMEM medium containing 10% fetal bovine serum without the addition of oleic acid (control). […] In the obtained refractive index distribution data, a region where the refractive index (n) was greater than 1.337 was determined as a cell aggregate region. […] A region having a refractive index (n) of greater than 1.375 was determined as a lipid droplet region. The area of the lipid droplet region present in the cell aggregate region of interest was measured.
compound,measurement,setting,value
CCCCCCCC/C=C\CCCCCCCC(=O)O [oleic acid],ratio of the volume of lipid droplets versus control (without oleic acid),"[1]; concentric circles at 2.5 μm intervals from center of gravity C, lipid droplet region n>1.37",greater ratio of the volume of lipid droplets
same,distance from the center of gravity where many lipid droplets exist,[1]; oleic acid-treated and control alike,about 20 μm
same,formation of lipid droplets (structures with high refractive index),[2]; FIG. 41B,induced the formation of lipid droplets
same,area of the lipid droplet region per cell aggregate relative to control (without oleic acid),"[2]; lipid droplet region n>1.375, aggregates of maximum diameter 50 to 100 μm",2.75 times
